Results: ChEMBL document CHEMBL1201862, “PubChem BioAssay data set” (2004)
Counter-ions that a name gives are not always drawn. The source made the active and inactive calls.

Assays:
[1] = molecular target: T1, Short transient receptor potential channel 4 (Mus musculus, UniProt Q9QUQ5); assay: mouse TRPC4 channel inhibitors, dose response, cell-based, HEK293 TRPC4/mu-opioid, Fluo-4 calcium (AID 434942); assay type: functional;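 also: potency of inhibitors blocking the TRPC4 calcium response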
T1 sequence (Q9QUQ5 whole entry): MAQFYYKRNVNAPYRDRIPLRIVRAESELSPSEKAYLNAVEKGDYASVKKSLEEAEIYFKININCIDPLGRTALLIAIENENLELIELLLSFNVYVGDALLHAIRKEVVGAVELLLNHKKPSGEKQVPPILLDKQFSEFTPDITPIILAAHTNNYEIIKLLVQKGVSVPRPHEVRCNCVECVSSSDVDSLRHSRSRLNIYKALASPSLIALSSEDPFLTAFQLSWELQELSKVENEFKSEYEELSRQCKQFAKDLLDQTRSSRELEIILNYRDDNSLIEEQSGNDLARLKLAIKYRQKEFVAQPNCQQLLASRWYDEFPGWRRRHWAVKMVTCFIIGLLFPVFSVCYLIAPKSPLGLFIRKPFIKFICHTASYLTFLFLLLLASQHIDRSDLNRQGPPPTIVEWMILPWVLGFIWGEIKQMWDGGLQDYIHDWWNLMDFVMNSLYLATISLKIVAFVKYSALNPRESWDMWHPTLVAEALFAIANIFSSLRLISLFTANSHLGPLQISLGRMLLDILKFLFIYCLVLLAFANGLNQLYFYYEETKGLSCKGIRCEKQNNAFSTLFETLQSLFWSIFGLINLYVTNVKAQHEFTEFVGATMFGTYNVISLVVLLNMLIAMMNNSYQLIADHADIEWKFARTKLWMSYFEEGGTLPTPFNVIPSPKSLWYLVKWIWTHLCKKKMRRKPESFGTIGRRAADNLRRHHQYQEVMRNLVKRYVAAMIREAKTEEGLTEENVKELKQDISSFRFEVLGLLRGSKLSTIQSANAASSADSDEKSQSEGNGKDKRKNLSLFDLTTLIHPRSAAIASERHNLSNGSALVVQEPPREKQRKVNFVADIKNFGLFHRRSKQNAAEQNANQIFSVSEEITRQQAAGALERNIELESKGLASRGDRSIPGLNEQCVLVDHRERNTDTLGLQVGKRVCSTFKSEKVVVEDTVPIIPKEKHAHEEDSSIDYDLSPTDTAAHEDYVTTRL

Streptococcus = assay: Group A Streptococcus viability loss, dose response, counter-screen for streptokinase expression inhibitor project, luminescence, BacTiterGlo (AID 1915); assay type: functional, organism-based;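 also: potency for reduction of bacterial viability or growth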
Streptokinase A = molecular target: T2, Streptokinase A (Streptococcus pyogenes serotype M1, UniProt P10520); assay: S. pyogenes streptokinase expression inhibitors, potency, dose response, plasminogen activation absorbance, OD405 (AID 1914); assay type: functional, Streptococcus pyogenes M1 GAS;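 also: secreted streptokinase activity via plasminogen activation per viability signal from cell pellet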
T2 sequence (P10520 whole entry): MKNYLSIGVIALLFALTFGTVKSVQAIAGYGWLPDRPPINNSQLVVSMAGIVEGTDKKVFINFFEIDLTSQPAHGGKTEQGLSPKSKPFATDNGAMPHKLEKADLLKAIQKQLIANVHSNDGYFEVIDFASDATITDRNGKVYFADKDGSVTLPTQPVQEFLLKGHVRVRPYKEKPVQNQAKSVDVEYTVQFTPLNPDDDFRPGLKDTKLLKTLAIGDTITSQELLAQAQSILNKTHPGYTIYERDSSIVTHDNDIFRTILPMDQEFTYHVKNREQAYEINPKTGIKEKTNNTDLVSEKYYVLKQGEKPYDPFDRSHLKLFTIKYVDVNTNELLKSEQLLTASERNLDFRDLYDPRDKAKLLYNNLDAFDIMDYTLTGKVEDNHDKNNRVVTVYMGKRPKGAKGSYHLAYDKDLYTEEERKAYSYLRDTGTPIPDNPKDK

[2] = system: Streptococcus sp. 'group A'; assay: growth inhibition of control SK(-) GAS strain, dose response, counter-screen for streptokinase expression inhibitor project, luminescence, kanamycin, BacTiterGlo, confirmation (AID 1900); assay type: functional, organism-based
[3] = Luminescence Cell-Based Dose Retest to Confirm Inhibitors of Cancer Stem Cells. [Related pubchem assays (depositor defined):AID2717, AID2721]; assay type: functional; conditions: Homo sapiens
[4] = cytotoxicity in HEK-293T cells, dose response, cytotoxicity control for BCR NF-kB inhibitor project, luminescence, B-cell screen hits (AID 489021); assay type: functional, cell-based;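 also: HEK-293T cells carrying an NF-kB luciferase reporter; cells exposed to compound for about 14 hours before viability readout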
[5] = molecular target: Eukaryotic translation initiation factor 4E (Mus musculus, UniProt P63073); assay: eIF4E–eIF4G protein interaction inhibitors, dose response, biochemical, TR-FRET (AID 855); assay type: functional;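 also: potency for disrupting eIF4E binding to eIF4GI seen as loss of FRET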
Chain of Eukaryotic translation initiation factor 4E (P63073 whole entry): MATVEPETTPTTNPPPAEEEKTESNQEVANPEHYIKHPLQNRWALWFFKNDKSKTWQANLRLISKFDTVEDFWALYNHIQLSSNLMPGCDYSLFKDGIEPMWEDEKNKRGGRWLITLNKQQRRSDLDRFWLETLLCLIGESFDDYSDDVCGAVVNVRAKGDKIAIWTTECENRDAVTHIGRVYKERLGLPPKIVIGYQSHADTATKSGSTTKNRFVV

Vero [6] = assay: cells; assay type: functional, cell-based; conditions: Chlorocebus sabaeus
Protein RecA = molecular target: T3, Protein RecA (Mycobacterium tuberculosis, UniProt P9WHJ3); assay: Fluorescence Cell-Free Homogeneous Dose Retest to Identify Inhibitors of RecA-Intein Splicing Activity. [Related pubchem assays (depositor defined):AID2097, AID2223, AID489010, AID492950]; assay type: functional
T3 sequence (P9WHJ3 whole entry): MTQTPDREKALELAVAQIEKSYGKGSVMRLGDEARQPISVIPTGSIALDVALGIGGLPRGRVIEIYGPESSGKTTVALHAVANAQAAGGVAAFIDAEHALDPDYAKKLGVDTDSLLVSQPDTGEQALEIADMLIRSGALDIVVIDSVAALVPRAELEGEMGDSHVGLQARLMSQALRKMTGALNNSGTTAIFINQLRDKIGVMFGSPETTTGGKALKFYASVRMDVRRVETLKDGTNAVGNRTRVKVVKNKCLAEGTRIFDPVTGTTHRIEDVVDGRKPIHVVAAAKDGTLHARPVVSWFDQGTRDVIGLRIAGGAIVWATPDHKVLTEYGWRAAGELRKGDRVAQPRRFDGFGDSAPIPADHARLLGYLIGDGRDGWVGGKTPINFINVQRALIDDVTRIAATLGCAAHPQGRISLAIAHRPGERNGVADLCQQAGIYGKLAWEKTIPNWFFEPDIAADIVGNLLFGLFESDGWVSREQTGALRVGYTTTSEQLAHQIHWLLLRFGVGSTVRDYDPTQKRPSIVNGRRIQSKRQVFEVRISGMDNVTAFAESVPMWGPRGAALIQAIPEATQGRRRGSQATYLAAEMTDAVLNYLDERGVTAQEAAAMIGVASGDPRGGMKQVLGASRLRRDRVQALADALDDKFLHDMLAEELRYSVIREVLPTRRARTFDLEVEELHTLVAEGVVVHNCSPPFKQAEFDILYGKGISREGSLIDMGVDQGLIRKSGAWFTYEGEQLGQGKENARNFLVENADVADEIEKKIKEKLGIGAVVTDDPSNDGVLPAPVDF

[7] = molecular target: T4, Replicative DNA helicase DnaB (Mycobacterium tuberculosis, UniProt P9WMR3); assay: DnaB intein splicing inhibitors, dose response, biochemical, cell-free fluorescence (AID 449749); assay type: functional
T4 sequence (P9WMR3 whole entry): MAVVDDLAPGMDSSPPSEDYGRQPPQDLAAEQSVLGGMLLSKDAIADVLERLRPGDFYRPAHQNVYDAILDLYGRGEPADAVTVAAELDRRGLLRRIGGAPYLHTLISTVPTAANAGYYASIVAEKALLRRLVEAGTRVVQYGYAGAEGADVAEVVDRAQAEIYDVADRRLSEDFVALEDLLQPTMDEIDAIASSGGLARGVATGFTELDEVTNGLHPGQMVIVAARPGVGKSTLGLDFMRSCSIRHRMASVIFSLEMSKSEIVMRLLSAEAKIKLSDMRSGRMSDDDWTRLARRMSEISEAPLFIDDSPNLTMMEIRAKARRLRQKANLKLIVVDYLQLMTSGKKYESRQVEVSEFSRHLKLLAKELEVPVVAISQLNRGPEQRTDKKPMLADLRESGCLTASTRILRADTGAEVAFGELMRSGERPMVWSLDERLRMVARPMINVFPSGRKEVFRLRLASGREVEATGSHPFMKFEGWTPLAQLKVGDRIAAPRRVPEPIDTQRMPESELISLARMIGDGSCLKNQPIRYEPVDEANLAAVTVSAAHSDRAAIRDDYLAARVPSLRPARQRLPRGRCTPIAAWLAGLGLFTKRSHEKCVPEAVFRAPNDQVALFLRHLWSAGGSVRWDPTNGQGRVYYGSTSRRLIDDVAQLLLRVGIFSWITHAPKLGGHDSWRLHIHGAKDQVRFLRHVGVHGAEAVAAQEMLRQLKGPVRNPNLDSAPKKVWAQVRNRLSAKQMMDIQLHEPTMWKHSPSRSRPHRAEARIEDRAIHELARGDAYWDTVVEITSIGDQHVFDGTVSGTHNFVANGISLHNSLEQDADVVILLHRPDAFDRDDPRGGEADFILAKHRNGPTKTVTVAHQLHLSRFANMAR

Vero [8] = assay: cells; assay type: functional; conditions: Chlorocebus sabaeus
[9] = HEp-2 cell cytotoxicity, dose response, cytotoxicity control for RSV inhibitor project, HTS (AID 2410); assay type: functional; conditions: human respiratory syncytial virus
cells [10] = assay: cells
[11] = molecular target: T5, Heat shock factor protein 1 (Mus musculus, UniProt P38532); assay: inhibition of MG132-induced HSE-luciferase signal, confirmation, cell-based, NIH3T3, luminescence, dose retest (AID 2382); assay type: functional;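 also: NIH3T3 fibroblasts with HSF1-driven luciferase reporter stressed by proteasome inhibitor MG132; luminescence from HSF1-driven luciferase expression after 8 hours of MG132 stress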
T5 sequence (P38532 whole entry): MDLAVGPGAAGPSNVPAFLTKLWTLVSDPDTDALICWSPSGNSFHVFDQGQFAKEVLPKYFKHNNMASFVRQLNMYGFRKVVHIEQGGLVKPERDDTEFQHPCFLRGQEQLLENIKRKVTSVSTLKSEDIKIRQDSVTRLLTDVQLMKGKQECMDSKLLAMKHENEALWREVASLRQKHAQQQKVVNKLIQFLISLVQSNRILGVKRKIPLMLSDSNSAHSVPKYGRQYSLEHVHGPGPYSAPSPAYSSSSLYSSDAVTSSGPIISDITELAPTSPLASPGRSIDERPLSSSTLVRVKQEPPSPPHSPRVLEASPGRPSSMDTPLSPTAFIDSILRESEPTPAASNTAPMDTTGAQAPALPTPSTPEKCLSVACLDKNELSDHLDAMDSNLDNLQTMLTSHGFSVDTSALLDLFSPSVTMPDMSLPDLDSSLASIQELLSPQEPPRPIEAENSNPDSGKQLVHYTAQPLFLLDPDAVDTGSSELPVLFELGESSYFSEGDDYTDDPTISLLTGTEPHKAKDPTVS

[12] = molecular target: T6, Microphthalmia-associated transcription factor (Homo sapiens, UniProt O75030); assay: TRPM1 promoter luciferase signal decrease, dose response, MITF inhibitor project, cell-based, SK-MEL-5, cherry-picked, set 3 (AID 493073); assay type: functional
T6 sequence (O75030 whole entry): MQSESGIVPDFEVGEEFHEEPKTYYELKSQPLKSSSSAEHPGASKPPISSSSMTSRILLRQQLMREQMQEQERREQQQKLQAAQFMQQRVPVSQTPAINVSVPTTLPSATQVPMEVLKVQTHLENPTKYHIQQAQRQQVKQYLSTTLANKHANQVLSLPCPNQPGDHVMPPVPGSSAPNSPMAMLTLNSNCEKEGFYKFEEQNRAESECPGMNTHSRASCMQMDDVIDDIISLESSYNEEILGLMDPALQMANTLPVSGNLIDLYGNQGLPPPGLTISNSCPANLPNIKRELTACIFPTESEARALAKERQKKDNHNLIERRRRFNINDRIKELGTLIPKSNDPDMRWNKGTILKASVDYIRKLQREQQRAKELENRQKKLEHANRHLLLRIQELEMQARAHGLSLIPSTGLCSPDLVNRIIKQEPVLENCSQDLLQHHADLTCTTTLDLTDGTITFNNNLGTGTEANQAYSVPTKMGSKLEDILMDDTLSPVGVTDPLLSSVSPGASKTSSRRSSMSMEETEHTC

[13] = molecular target: Voltage-dependent T-type calcium channel subunit alpha-1H (Homo sapiens, UniProt O95180); assay type: functional;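 also: channel activity triggered by adding a high calcium stimulation buffer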
Chain of Voltage-dependent T-type calcium channel subunit alpha-1H (O95180 whole entry): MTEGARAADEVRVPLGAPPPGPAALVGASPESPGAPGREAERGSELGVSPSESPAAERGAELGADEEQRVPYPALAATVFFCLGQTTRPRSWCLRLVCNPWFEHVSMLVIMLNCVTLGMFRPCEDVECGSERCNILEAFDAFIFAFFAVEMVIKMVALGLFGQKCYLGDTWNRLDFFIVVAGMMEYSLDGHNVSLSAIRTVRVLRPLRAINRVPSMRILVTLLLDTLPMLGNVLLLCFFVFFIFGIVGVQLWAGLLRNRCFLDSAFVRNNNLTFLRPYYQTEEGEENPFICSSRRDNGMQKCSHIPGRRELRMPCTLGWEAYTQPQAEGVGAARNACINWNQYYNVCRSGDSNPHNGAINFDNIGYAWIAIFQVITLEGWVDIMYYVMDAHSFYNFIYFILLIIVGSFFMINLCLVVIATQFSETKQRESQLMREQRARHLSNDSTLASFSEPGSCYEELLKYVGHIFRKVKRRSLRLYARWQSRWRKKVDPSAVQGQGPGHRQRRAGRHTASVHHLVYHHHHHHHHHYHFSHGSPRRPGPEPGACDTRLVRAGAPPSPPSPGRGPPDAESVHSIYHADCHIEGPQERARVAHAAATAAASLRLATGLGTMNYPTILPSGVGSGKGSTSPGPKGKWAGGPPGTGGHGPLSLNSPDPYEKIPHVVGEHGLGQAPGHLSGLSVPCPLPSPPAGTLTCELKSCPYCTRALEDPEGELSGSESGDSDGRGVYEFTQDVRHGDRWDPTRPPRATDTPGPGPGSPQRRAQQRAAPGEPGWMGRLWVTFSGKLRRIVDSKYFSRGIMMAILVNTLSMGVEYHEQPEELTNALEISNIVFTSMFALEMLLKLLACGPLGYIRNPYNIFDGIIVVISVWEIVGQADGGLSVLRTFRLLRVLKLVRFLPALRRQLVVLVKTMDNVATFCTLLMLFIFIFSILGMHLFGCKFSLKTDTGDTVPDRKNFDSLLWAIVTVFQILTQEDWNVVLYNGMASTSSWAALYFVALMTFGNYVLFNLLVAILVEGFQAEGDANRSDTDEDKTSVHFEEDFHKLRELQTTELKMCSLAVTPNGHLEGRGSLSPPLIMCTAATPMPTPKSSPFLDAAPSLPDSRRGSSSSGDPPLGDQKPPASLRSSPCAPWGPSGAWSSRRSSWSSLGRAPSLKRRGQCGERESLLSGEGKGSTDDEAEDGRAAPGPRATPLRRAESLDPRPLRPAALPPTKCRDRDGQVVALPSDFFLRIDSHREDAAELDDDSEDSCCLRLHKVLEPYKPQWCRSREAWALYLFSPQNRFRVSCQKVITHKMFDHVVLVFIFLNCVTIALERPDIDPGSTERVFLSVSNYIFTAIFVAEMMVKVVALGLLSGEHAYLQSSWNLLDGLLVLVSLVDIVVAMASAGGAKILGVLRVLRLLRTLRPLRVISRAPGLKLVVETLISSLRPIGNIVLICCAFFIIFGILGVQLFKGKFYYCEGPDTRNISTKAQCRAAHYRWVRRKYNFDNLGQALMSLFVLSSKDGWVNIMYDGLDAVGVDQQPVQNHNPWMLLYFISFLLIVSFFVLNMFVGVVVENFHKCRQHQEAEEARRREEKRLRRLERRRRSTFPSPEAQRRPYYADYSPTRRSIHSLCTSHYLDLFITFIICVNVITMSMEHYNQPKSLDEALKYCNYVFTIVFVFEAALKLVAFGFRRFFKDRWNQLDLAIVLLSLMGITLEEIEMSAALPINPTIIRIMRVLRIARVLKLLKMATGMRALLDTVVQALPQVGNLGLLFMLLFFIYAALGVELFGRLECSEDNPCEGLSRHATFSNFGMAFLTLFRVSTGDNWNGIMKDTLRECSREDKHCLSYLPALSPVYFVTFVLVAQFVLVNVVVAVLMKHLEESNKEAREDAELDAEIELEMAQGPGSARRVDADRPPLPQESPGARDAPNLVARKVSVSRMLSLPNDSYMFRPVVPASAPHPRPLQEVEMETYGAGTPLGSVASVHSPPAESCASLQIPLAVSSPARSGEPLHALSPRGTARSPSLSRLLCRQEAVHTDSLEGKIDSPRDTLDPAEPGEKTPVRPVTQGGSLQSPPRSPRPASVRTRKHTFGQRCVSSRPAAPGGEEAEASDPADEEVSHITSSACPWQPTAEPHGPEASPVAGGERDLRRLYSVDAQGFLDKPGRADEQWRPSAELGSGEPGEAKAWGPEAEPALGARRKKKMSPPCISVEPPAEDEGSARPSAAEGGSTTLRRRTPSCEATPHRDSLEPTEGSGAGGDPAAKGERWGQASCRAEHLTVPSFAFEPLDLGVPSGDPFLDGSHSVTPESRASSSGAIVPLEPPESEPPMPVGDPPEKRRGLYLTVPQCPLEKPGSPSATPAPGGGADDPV

cells [14] = assay type: functional
[15] = THP-1 cell cytotoxicity, dose response, cytotoxicity control for non-replicating M. tuberculosis project (AID 489025); assay type: functional

COc1cc(CNC2CCCC2)c(Br)cc1OCc1ccccc1
EC50 [1]: 0.237 µM (active)

O=C(O)c1ccc(CSc2nc(-c3ccc(Cl)cc3)cc(C(F)(F)F)n2)cc1
EC50 (Streptococcus): 11.7 µM (active)
EC50 (Streptokinase A): > 150 µM (not active)
EC50 [2]: 4.41 µM (active)
AC50 [3]: 5.76 µM (active)
EC50 [1]: 5.96 µM (active)

COc1ccc(/C=C2\SC(=O)N(CCCC(=O)Nc3ccc(C(=O)O)cc3)C2=O)cc1OC
IC50 [4]: > 80 µM (inactive)

CCCCOc1cc(C(=O)NCCN(CC)CC)c2ccccc2n1 [DIBUCAINE HYDROCHLORIDE]
IC50 [5]: 50 µM (inactive)

CC(=O)NC1=C(Nc2ccc(N(C)C)cc2)C(=O)c2ccccc2C1=O
IC50 (Vero [6]): 24.7 µM (active)
EC50 (Protein RecA): 46.6 µM (active)
AC50 [7]: 34.5 µM (active)
CC50 (Vero [8]): > 25 µM (active)
CC50 [9]: 15.3 µM (active)
IC50 (cells [10]): 17.5 µM (active)

COc1ccccc1N1CCN(CC(C)N(C(=O)C2CCCCC2)c2ccccn2)CC1 (stereo not drawn)
EC50 [1]: 0.335 µM (active)

Cc1cc(-c2csc3ncnc(N4CCN(C)CC4)c23)cc(C)c1C
EC50 [1]: 1.19 µM (active)

CCN1C(=O)c2cccc3c(S(=O)(=O)Nc4ccccn4)ccc1c23
IC50 [4]: > 80 µM (inactive)

C=CCOc1ccc(/C=C2\SC(=S)N(CCC(=O)O)C2=O)cc1
EC50 [11]: 5.69 µM (active)
IC50 [4]: > 80 µM (inactive)
AC50 [12]: 0.337 µM (active)

CCOc1ccccc1CNC(=O)c1cc2oc3ccccc3c2n1C
IC50 (Vero [6]): 4.91 µM (active)
CC50 [9]: 18.7 µM (active)
IC50 (cells [10]): 9.25 µM (active)

CSc1cccc(NC(=O)CSc2ccccc2)c1
EC50 [13]: 9.9 µM (active)

O=C1NC(=O)C(CCc2ccncc2)(CCc2ccncc2)C(=O)N1Cc1ccccc1
EC50 [11]: > 195 µM (not active)
IC50 [5]: 50 µM (inactive)

O=C(CSc1nnc(Cc2cccs2)n1-c1ccccc1)NCc1ccc2c(c1)OCO2
EC50 [13]: 8.23 µM (active)

C#CCSc1nnc(-c2ccc(C)cc2)o1
IC50 (cells [14]): 26.4 µM (active)
CC50 [15]: > 40 µM (active)

O=C(Nc1ccc(F)cc1)c1cc(S(=O)(=O)Nc2ccc(F)cc2)cs1
EC50 [13]: 2.88 µM (active)

CN(C)CC/C=C1\c2cc(Cl)ccc2Sc2cc(F)c(F)cc21
CC50 (Vero [8]): > 25 µM (active)
IC50 (cells [14]): 18.2 µM (active)
CC50 [15]: 38.8 µM (active)
